Like-named read-outs stand apart in the source and are kept apart here. Numbered stars: 1 amine (or outer) side, 2 acyl side, 3 side chain; on linkers, the order of the positions; unused ones are H or OH. Bridge positions count the residues as written; N and C are the ends. Square brackets hold non-standard residues; d marks the D form. Peptide text beside a SMILES is read from it. * marks the point of attachment. C20 diacid = O=C(O)CCCCCCCCCCCCCCCCCCC(=O)*; γGlu = O=C(O)[C@H](CCC(=O)[*:2])N[*:1]; NMeI = CC[C@H](C)[C@H](NC)C(=O)O; Sar = CNCC(=O)O
Columns and labels:
[1] = Solubility assessment (turbidity absorbance at 325 nm); assay type: physicochemical; conditions: stock 2 mg/ml diluted 1:1, ambient temperature (typically 25°C), n=1; for Solubility, Acetate buffer pH 4: 100 mM acetate buffer pH 4.0; for Solubility, Acetate buffer pH 5: 100 mM acetate buffer pH 5.0; for Solubility, Histidine buffer pH 6: 100 mM histidine buffer pH 6.0; for Solubility, Histidine buffer pH 7: 100 mM histidine buffer pH 7.0; for Solubility, Phosphate buffer pH 6: 100 mM phosphate buffer pH 6.0; for Solubility, Phosphate buffer pH 7: 100 mM phosphate buffer pH 7.0; for Solubility, Phosphate buffer pH 7.5: 100 mM phosphate buffer pH7.5
In short: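 Read-out: turbidity as absorbance at 325 nm (280 nm also read), single samples, ambient temperature of typically 25°C. Samples were a 1:1 mix of 2 mg/ml stock (water, pH 2.5) with 100 mM acetate, histidine or phosphate buffers spanning pH 4.0–7.5. Cut-off: A325 ≤ 0.02 indicates ≥ 1 mg/ml.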

[2] = biological target: T1, human amylin receptor 3 (hAMYR3) consisting of hCTR2 co-expressed with human Receptor Activity Modifying Protein 3 (hRAMP3) (Homo sapiens, UniProt O60896+P30988); experiment: hAMYR3 assay: induction of cAMP (AlphaScreen cAMP Assay kit) in COS7 cells expressing hAMYR3; assay type: cell-based
T1 construct: expressed in transfected cells
T1 sequence (P30988 25-474): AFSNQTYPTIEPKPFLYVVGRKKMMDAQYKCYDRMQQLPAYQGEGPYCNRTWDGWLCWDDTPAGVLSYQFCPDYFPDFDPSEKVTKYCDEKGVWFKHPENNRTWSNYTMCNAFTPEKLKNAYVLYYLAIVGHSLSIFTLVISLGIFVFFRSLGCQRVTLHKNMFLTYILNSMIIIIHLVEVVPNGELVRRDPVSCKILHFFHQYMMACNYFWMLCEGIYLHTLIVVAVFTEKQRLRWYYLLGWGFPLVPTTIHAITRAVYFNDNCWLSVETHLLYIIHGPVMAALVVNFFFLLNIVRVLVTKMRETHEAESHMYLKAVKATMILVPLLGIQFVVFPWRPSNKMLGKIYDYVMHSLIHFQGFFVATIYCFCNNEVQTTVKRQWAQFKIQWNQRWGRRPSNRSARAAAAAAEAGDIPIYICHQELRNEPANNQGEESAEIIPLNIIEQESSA
T1 sequence (O60896 24-148 partner): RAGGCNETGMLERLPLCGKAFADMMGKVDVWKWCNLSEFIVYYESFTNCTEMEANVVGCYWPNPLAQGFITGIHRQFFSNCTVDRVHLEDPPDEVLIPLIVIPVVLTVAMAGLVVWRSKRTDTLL
Description: The cell line COS7, originating from African Green Monkey kidney fibroblast cells, was used for establishment of the stable cell lines described below. The COS7 cellular background was used due to it being RAMP naive, and as such it provides the best available system for testing of the monomeric hCTR and different heterodimeric amylin receptor subtypes functionally generated by introduction of the individual RAMPs.
A cell line expressing the human amylin receptor 3 (hAMYR3) was generated in the COS7 cellular background as stable clones. In brief, hCTR2 (GI:4502547) and hRAMP3 (GI:118572586) were amplified by PCR using primers encoding terminal restriction sites for subcloning. The 5'-end primers additionally encoded a near Kozak consensus sequence to ensure efficient translation. The fidelity of the DNA encoding the receptor was confirmed by DNA sequencing. The PCR products encoding the receptor were subcloned into a proprietary tri-cistronic mammalian expression vector with RAMP3, hCTR2 and neomycin (G418) resistance marker. The mammalian expression vector encoding the receptor was transfected into COS7 cells by a standard liposome transfection method. 48 hours post-transfection, cells were seeded for limited dilution cloning and selected with 1 mg/ml G418 in the culture medium. After 3 weeks, surviving colonies of hAMY3R-expressing cells were picked, propagated and tested in the amylin efficacy assay as described in Example 3 below. The functional generation of the amylin receptor phenotype was verified in the efficacy assay by a left-shifted efficacy response to amylin relative to monomeric calcitonin receptor, and one hAMYR3-expressing clone was chosen for compound profiling.
In vitro activity of test peptides at the hCTR2 and hAMYR3 receptors was assessed by measuring the induction of cAMP following stimulation of the receptor by pramlintide or peptides of the invention using the AlphaScreen® cAMP Assay kit from Perkin-Elmer.
Briefly, COS7 cells expressing hCTR2 (see Example 2, above) were seeded at 30-40,000 cells per well in 96-well microtiter plates coated with 0.01 % poly-L-lysine, and grown for 1 day in culture in 100 µl growth medium [DMEM, 10% FCS, Penicillin (100 IU/ml), Streptomycin (100 µg/ml)]. On the day of analysis, growth medium was removed and the cells were washed once with 200 µl Tyrode buffer [Tyrode's Salts (9.6 g/l), 10 mM HEPES, pH 7.4]. Cells were incubated in 100 µl Tyrode buffer containing increasing concentrations of test peptides, 100 µM IBMX and 0.1% casein for 15 min at 37° C. The reaction was stopped by carefully decanting off the compound/buffer medium and replacing it with lysis/detection buffer (80 µl 0.1 % w/v BSA, 5 mM HEPES, 0.3 % v/v Tween-20 in deionized water). After incubation at room temperature for 10 min., the cAMP content of the resulting cell lysate was estimated according to the AlphaScreen® cAMP Assay manufacturer's instructions. EC50 values and relative efficacy values (in %) compared to reference peptide (Pramlintide) were estimated by computer-aided curve fitting using the 4-parameter logistic (4PL) non-linear model.
The in vitro activity results (expressed as EC50 values) for peptides of the invention and for Pramlintide (reference peptide) are summarized in Table 2, below.

[3] = biological target: T2, human calcitonin receptor (hCTR2) (Homo sapiens, UniProt P30988); experiment: hCTR2 assay: induction of cAMP (AlphaScreen cAMP Assay kit) in COS7 cells expressing hCTR2; assay type: cell-based
T2 construct: expressed in transfected cells
T2 sequence (P30988 25-474): T1 sequence (P30988 25-474)
In short: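 cAMP induction was measured by AlphaScreen in COS7 cells stably expressing hCTR2 without RAMPs, after 15 min at 37° C with increasing peptide concentrations, 100 µM IBMX and 0.1% casein (Tyrode, pH 7.4). A 4-parameter logistic fit gave EC50 and % efficacy versus pramlintide.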

| SMILES | Solubility, Acetate buffer pH 4 [1] | Solubility, Acetate buffer pH 5 [1] | Solubility, Histidine buffer pH 6 [1] | Solubility, Histidine buffer pH 7 [1] | Solubility, Phosphate buffer pH 6 [1] | Solubility, Phosphate buffer pH 7 [1] | Solubility, Phosphate buffer pH 7.5 [1] | EC50 [2] [nM] | EC50 ([3]; cAMP induction in COS7 cells expressing hCTR2, average of a minimum of 3 determinations, read-out: hCTR2 EC50) [nM] | EC50 [3] [nM] |
| --- | --- | --- | --- | --- | --- | --- | --- | --- | --- | --- |
| CC[C@H](C)[C@@H](C(=O)N[C@@H](CC(C)C)C(=O)N[C@@H](CO)C(=O)N[C@@H](CO)C(=O)N[C@H](C(=O)N[C@@H](CC(N)=O)C(=O)N[C@H](C(=O)NCC(=O)N[C@@H](CO)C(=O)N[C@@H](CC(N)=O)C(=O)N[C@H](C(=O)N1CCC[C@H]1C(N)=O)[C@@H](C)O)C(C)C)[C@@H](C)O)N(C)C(=O)[C@H](C)NC(=O)CN(C)C(=O)[C@H](Cc1ccccc1)NC(=O)[C@H](CC(N)=O)NC(=O)[C@H](CC(N)=O)NC(=O)[C@H](CO)NC(=O)[C@H](CO)NC(=O)[C@H](CCCNC(=N)N)NC(=O)[C@H](Cc1c[nH]cn1)NC(=O)[C@H](CC(C)C)NC(=O)[C@H](Cc1ccccc1)NC(=O)[C@H](CCC(=O)O)NC(=O)[C@H](C)NC(=O)[C@H](CC(C)C)NC(=O)[C@H](CCCNC(=N)N)NC(=O)[C@H](CCC(N)=O)NC(=O)[C@@H](NC(=O)[C@H](C)NC(=O)[C@@H]1CSSC[C@H](NC(=O)[C@H](CCCNC(=N)N)NC(=O)[C@H](CCCNC(=N)N)NC(=O)CC[C@H](NC(=O)CCCCCCCCCCCCCCCCCCC(=O)O)C(=O)O)C(=O)N[C@@H](CC(N)=O)C(=O)N[C@@H]([C@@H](C)O)C(=O)N[C@@H](C)C(=O)N[C@@H]([C@@H](C)O)C(=O)N1)[C@@H](C)O [Compound 83, [19CD]-isoGlu-RRC()NTATC()ATQRLAEFLHRSSNNF-Gly(Me)-A-Ile(Me)-LSSTNVGSNTP-NH2] ({C20 diacid-γGlu}-RRCNTATCATQRLAEFLHRSSNNF[Sar]A[NMeI]LSSTNVGSNTP-NH2; disulfide 3-8) | SS (SS indicates solubility ≥ 1mg/ml) | SS (SS indicates solubility ≥ 1mg/ml) | SS (SS indicates solubility ≥ 1mg/ml) | SS (SS indicates solubility ≥ 1mg/ml) | SS (SS indicates solubility ≥ 1mg/ml) | SS (SS indicates solubility ≥ 1mg/ml) | SS (SS indicates solubility ≥ 1mg/ml) | 0.095 | – | – |
| CC[C@H](C)[C@@H](C(=O)N[C@@H](CC(C)C)C(=O)N[C@@H](CO)C(=O)N[C@@H](CO)C(=O)N[C@H](C(=O)N[C@@H](CCC(=O)O)C(=O)N[C@H](C(=O)NCC(=O)N[C@@H](CO)C(=O)N[C@@H](CCC(=O)O)C(=O)N[C@H](C(=O)N1CCC[C@H]1C(N)=O)[C@@H](C)O)C(C)C)[C@@H](C)O)N(C)C(=O)CN(C)C(=O)[C@H](Cc1ccccc1)NC(=O)[C@H](CO)NC(=O)[C@H](CO)NC(=O)[C@H](CCCNC(=N)N)NC(=O)[C@H](Cc1c[nH]cn1)NC(=O)[C@H](CC(C)C)NC(=O)[C@H](Cc1ccccc1)NC(=O)[C@H](CCC(=O)O)NC(=O)[C@H](C)NC(=O)[C@H](CC(C)C)NC(=O)[C@H](CCCNC(=N)N)NC(=O)[C@H](CCC(N)=O)NC(=O)[C@@H](NC(=O)[C@H](C)NC(=O)[C@@H]1CSSC[C@H](NC(=O)[C@H](CCCNC(=N)N)NC(=O)CC[C@H](NC(=O)CCCCCCCCCCCCCCCCCCC(=O)O)C(=O)O)C(=O)N[C@@H](CC(N)=O)C(=O)N[C@@H]([C@@H](C)O)C(=O)N[C@@H](C)C(=O)N[C@@H]([C@@H](C)O)C(=O)N1)[C@@H](C)O [Compound 95, [19CD]-isoGlu-RC()NTATC()ATQRLAEFLHRSSF-Gly(Me)-Ile(Me)-LSSTEVGSETP-NH2] ({C20 diacid-γGlu}-RCNTATCATQRLAEFLHRSSF[Sar][NMeI]LSSTEVGSETP-NH2; disulfide 2-7) | SS (SS indicates solubility ≥ 1mg/ml) | SS (SS indicates solubility ≥ 1mg/ml) | SS (SS indicates solubility ≥ 1mg/ml) | SS (SS indicates solubility ≥ 1mg/ml) | SS (SS indicates solubility ≥ 1mg/ml) | SS (SS indicates solubility ≥ 1mg/ml) | SS (SS indicates solubility ≥ 1mg/ml) | – | 0.082 | – |
| CC[C@H](C)[C@@H](C(=O)N[C@@H](CC(C)C)C(=O)N[C@@H](CO)C(=O)N[C@@H](CO)C(=O)N[C@H](C(=O)N[C@@H](CC(N)=O)C(=O)N[C@H](C(=O)NCC(=O)N[C@@H](CO)C(=O)N[C@@H](CC(N)=O)C(=O)N[C@H](C(=O)N[C@@H](Cc1ccc(O)cc1)C(N)=O)[C@@H](C)O)C(C)C)[C@@H](C)O)N(C)C(=O)[C@H](C)NC(=O)CN(C)C(=O)[C@H](Cc1ccccc1)NC(=O)[C@H](CC(N)=O)NC(=O)[C@H](CC(N)=O)NC(=O)[C@H](CO)NC(=O)[C@H](CO)NC(=O)[C@H](CCCNC(=N)N)NC(=O)[C@H](Cc1c[nH]cn1)NC(=O)[C@H](CC(C)C)NC(=O)[C@H](Cc1ccccc1)NC(=O)[C@H](CCC(=O)O)NC(=O)[C@H](C)NC(=O)[C@H](CC(C)C)NC(=O)[C@H](CCCNC(=N)N)NC(=O)[C@H](CCC(N)=O)NC(=O)[C@@H](NC(=O)[C@H](C)NC(=O)[C@@H]1CSSC[C@H](NC(=O)[C@H](CCCNC(=N)N)NC(=O)CC[C@H](NC(=O)CCCCCCCCCCCCCCCCCCC(=O)O)C(=O)O)C(=O)N[C@@H](CC(N)=O)C(=O)N[C@@H]([C@@H](C)O)C(=O)N[C@@H](C)C(=O)N[C@@H]([C@@H](C)O)C(=O)N1)[C@@H](C)O [Compound 156, [19CD]-isoGlu-RC()NTATC()ATQRLAEFLHRSSNNF-Gly(Me)-A-Ile(Me)-LSSTNVGSNTY-NH2] ({C20 diacid-γGlu}-RCNTATCATQRLAEFLHRSSNNF[Sar]A[NMeI]LSSTNVGSNTY-NH2; disulfide 2-7) | SS (SS indicates solubility ≥ 1mg/ml) | SS (SS indicates solubility ≥ 1mg/ml) | SS (SS indicates solubility ≥ 1mg/ml) | II (II indicates solubility ≤ 1 mg/ml) | SS (SS indicates solubility ≥ 1mg/ml) | II (II indicates solubility ≤ 1 mg/ml) | II (II indicates solubility ≤ 1 mg/ml) | – | – | 0.54 |

— patent EP3046573B1, “AMYLIN ANALOGUES” (Zealand Pharma A/S, priority 2013, dated 2015)
